Experimental data from BigSolDB 2.1.

O=C(N[C@@H](Cc1c[nH]c2ccccc12)C(=O)O)OCc1ccccc1
solubility (mole fraction)
Conditions	283.15 K	288.15 K	293.15 K	298.15 K	303.15 K	308.15 K	313.15 K	318.15 K	323.15 K
in 2-butanone	0.133	0.143	0.152	0.161	0.173	0.182	0.196	0.205	0.221
in acetone	0.204	0.23	0.264	0.306	0.358	0.409	0.458	0.505	0.557
in acetonitrile	0.0197	0.025	0.0305	0.0428	0.06	0.0766	0.0967	0.117	0.134
in ethanol	0.0567	0.0689	0.0826	0.1	0.124	0.142	0.164	0.189	0.208
in ethyl acetate	0.0484	0.0559	0.0629	0.0707	0.0794	0.0906	0.103	0.118	0.133
in isobutanol	0.00972	0.0123	0.0177	0.0245	0.0302	0.0379	0.045	0.0547	0.0692
in isopropanol	0.0299	0.0351	0.0439	0.0536	0.0656	0.08	0.0917	0.109	0.125
in methyl acetate	0.0663	0.0737	0.0836	0.0968	0.112	0.125	0.141	0.162	0.182
in n-butanol	0.0231	0.0278	0.0334	0.0403	0.0526	0.0666	0.0784	0.0941	0.114
in n-pentanol	0.0181	0.0209	0.0252	0.0322	0.0393	0.0458	0.0536	0.0631	0.0717
in n-propanol	0.0283	0.0389	0.0502	0.064	0.0763	0.0881	0.104	0.123	0.141
in water	4.06e-05	5.32e-05	6.49e-05	7.79e-05	8.87e-05	9.81e-05	0.000109	0.000118	0.000125
